Assay results taken from patent publication US20230146239A1 (THE SCRIPPS RESEARCH INSTITUTE, priority 2020, published 2023).
Converted amounts (≈) assume the structure as drawn. Like-named read-outs stand apart in the source and are kept apart here.

Assays:
[1] = test system: VanA VRE E. faecalis BM 4166 and E. faecium ATCC BAA-2317; settings: previously reported; C1-vancomycin even at 100 μM; cited from earlier work
[2] = Mouse pharmacokinetics, iv; settings: 10 mg/kg
Protocol: Plasma was obtained by centrifugation using a microcentrifuge fit with a hematocrit rotor, and obtained plasma was immediately frozen. The use of micro-sampling blood collection reduces the total blood taken from the mouse and allows a single mouse to be used for the entire time course, reducing inter-individual variability and maintaining the health of the mouse.
Drug levels were determined by mass spectrometry using an ABSciex 5500 mass spectrometer using multiple reaction monitoring. […] All PK work was conducted in the Scripps Florida vivarium which is fully AAALAC accredited. Procedures were approved by the Scripps Florida IACUC, protocol number 15-022.

[3] = mice, earlier studies; cited from earlier work
[4] = test system: VanA VRE, 4 strains; assay: Antimicrobial activity against VanA VRE panel (4 strains), summarised in text; format: cell-based, Enterococcus faecalis, Enterococcus faecium
From the text: (§2) The lowest concentration of antibiotic (in μg/mL) capable of eliminating cell growth in the wells is the reported MIC value.

[5] = test system: VanA E. faecalis BM 4166 or ATCC BAA-2573; assay: microbe, parasite or virus in culture; format: cell-based; settings: Enterococcus faecalis, ATCCBAA2573, read-out: MIC, VanA E. faecalis
From the text: as §2

[6] = test system: VanA E. faecium (ATCC BAA-2317); assay: In vitro antimicrobial microdilution assay (MIC); format: cell-based, Enterococcus faecium
From the text: as §2

[7] = mice, cited from earlier work; for terminal half-life (t1/2): earlier studies; for AUC / CL / Cmax / Vd / t1/2 / tmax: iv, earlier study
[8] = test system: VanA E. faecium (TX2465); assay: In vitro antimicrobial microdilution assay (MIC); format: cell-based, Enterococcus faecium
From the text: as §2

[9] = test system: VanA E. faecalis (BM 4166); assay: In vitro antimicrobial microdilution assay (MIC); format: cell-based, Enterococcus faecalis
From the text: as §2

[10] = test system: VanA E. faecalis (ATCC BAA-2573); assay: In vitro antimicrobial microdilution assay (MIC); format: cell-based, Enterococcus faecalis
From the text: as §2

[11] = test system: VanA VRE E. faecalis BM 4166 and E. faecium ATCC BAA-2317; format: cell-based, Enterococcus faecalis, Enterococcus faecium; settings: 10 μM added at 5 minutes
Protocol: The above bacterial solution was subjected to a subculture to obtain fresh mid-log phase bacterial cells (incubation time=6 hours). The bacterial suspension was diluted to a total volume of 7 mL with OD600=0.6.
After the cultured bacteria were harvested (3000 rpm, 4° C., 20 minutes), the white bacterial precipitate was washed and resuspended in 5 mM glucose and 5 mM HEPES buffer (1:1, 5.00 mL, pH=7.2).

[12] = test system: VanA VRE E. faecium (ATCC BAA2317); assay: organism not typed; format: cell-based, Enterococcus faecium
Protocol: (§1) When NaH2PO4 or POPE was used instead of LTA, 10% brain-heart infusion broth containing 0.002% Tween®-80 with 100 μg/mL NaH2PO4 or 100 μg/mL POPE was used as the culture medium used for serial dilution. When additional G3 (H2N^+(CH2)3NHC(NH2)═NH2^+.2TFA) or Mg^2+ was used, 10% brain-heart infusion broth containing 0.002% Tween®-80 with 100 μg/mL G3 or 100 μg/mL MgCl2 and 100 μg/mL lipoteichoic acid was used as the culture medium for serial dilution of study group, 10% brain-heart infusion broth containing 0.002% Tween®-80 with 100 μg/mL G3 was used as the culture medium for serial dilution of control group.

[13] = test system: VanB E. faecalis ATCC 51299; assay: microbe, parasite or virus in culture; format: cell-based, Enterococcus faecalis; settings: for MIC: Enterococcus faecalis, ATCC51299, read-out: MIC, VanB E. faecalis ATCC 51299
From the text: as §2

[14] = test system: Sensitive S. aureus ATCC 25923; assay: In vitro antimicrobial microdilution assay (MIC); format: cell-based, Staphylococcus aureus
From the text: as §2

[15] = test system: VanA VRE E. faecalis (BM 4166); assay: Impact of added LTA, phosphate, POPE on antimicrobial activity (MIC); format: cell-based, Enterococcus faecalis; settings: for decrease of antimicrobial activity by added LTA: 100 μg/mL LTA, both VanA VRE strains
Protocol: as §1

[16] = test system: MRSA S. aureus ATCC 43300; assay: microbe, parasite or virus in culture; format: cell-based, Staphylococcus aureus; settings: for MIC: Staphylococcus aureus, read-out: MIC, MRSA S. aureus ATCC 43300
From the text: as §2

[17] = test system: VanA VRSA strain VRS2 (S. aureus); settings: mouse, in vivo; cited from earlier work
[18] = Enterococcus faecium, ATCCBAA2317, read-out: MIC, VanA E. faecium ATCC BAA-2317
[19] = 10 mg/kg, listed as C1-CBP-vancomycin (4)

SMILES: CN[C@H](CC(C)C)C(=O)N[C@H]1C(=O)N[C@@H](CC(N)=O)C(=O)N[C@H]2C(=O)NC3C(=O)N[C@H](C(=O)N[C@H](C(=O)NCCC[N+](C)(C)C)c4cc(O)cc(O)c4-c4cc3ccc4O)[C@H](O)c3ccc(c(Cl)c3)Oc3cc2cc(c3OC2OC(CO)C(O)[C@H](O)[C@@H]2O[C@H]2CC(C)(NCc3ccc(-c4ccc(Cl)cc4)cc3)[C@H](O)[C@H](C)O2)Oc2ccc(cc2Cl)[C@H]1O (single isomer, unassigned) [Compound 4, C1-CBP-vancomycin]
- bacterial cell membrane permeabilization [1]: pronounced membrane permeabilization
- AUC ([2]; female, CD-1, mouse, in vivo): 48400 ng·h/mL
- Cmax ([2]; female, CD-1, mouse, in vivo): 14.5 µg/mL
- Vd ([2]; female, CD-1, mouse, in vivo): 0.64 L/kg
- clearance ([2]; female, CD-1, mouse, in vivo): 2 mL/min/kg
- half-life ([2]; female, CD-1, mouse, in vivo): 306 min
- tmax ([2]; female, CD-1, mouse, in vivo): 4.8 min
- MRTlNF—obs ([2]; mice): 336 min
- Vd ([2]; mice, this study): (0.64) L/kg
- MTD [3]: 50 mg/kg
- more potent than vancomycin [4]: about 1000 fold
- MIC [5]: 0.25 µg/mL
- MIC [6, 18]: 0.5 µg/mL
- terminal half-life (t1/2) [7]: 300 min
- AUC [7, 19]: 81100 ng·h/mL
- CL [7, 19]: 2 mL/min/kg
- Cmax [7, 19]: 14.1 µg/mL
- Vd [7, 19]: 1.25 L/kg
- t1/2 [7, 19]: 420 min
- tmax [7, 19]: 30 min
- AUC ([7]; 50 mg/kg): 430000 ng·h/mL
- CL ([7]; 50 mg/kg): 2 mL/min/kg
- Cmax ([7]; 50 mg/kg): 58.9 µg/mL
- Vd ([7]; 50 mg/kg): 1.04 L/kg
- t1/2 ([7]; 50 mg/kg): 372 min

SMILES: CN[C@H](CC(C)C)C(=O)N[C@H]1C(=O)N[C@@H](CC(N)=O)C(=O)N[C@H]2C(=O)N[C@H]3C(=O)N[C@H](C(=O)N[C@H](C(=O)O)c4cc(O)c(CN[C@@H](CCCNC(=N)N)C(=O)OC)c(O)c4-c4cc3ccc4O)[C@H](O)c3ccc(c(Cl)c3)Oc3cc2cc(c3OC2OC(CO)C(O)[C@H](O)C2O[C@H]2CC(C)(N)[C@H](O)[C@H](C)O2)Oc2ccc(cc2Cl)[C@H]1O (some centres unmarked) [Compound 27, Arg(OMe)^Ar-vancomycin]
- MIC ([8]; Enterococcus faecium; read-out: MIC, VanA E. faecium TX2465): 63 µg/mL (≈ 38.2 µM)
- less potent compared with Arg(OMe)-vancomycin (Compound 10) ([4]; resistant organisms): ≤ 8 fold
- MIC ([6]; Enterococcus faecium, ATCCBAA2317; read-out: MIC, VanA E. faecium ATCC BAA-2317): 8 µg/mL (≈ 4.85 µM)
- MIC ([9]; Enterococcus faecalis; read-out: MIC, VanA E. faecalis BM 4166): 31 µg/mL (≈ 18.8 µM)
- MIC ([10]; Enterococcus faecalis, ATCCBAA2573; read-out: MIC, VanA E. faecalis ATCC BAA-2573): 16 µg/mL (≈ 9.7 µM)

SMILES: CN[C@H](CC(C)C)C(=O)N[C@H]1C(=O)N[C@@H](CC(N)=O)C(=O)N[C@H]2C(=O)N[C@H]3C(=O)N[C@H](C(=O)N[C@H](C(=O)O)c4cc(O)cc(O)c4-c4cc3ccc4O)[C@H](O)c3ccc(c(Cl)c3)Oc3cc2cc(c3O[C@@H]2O[C@H](CO)[C@@H](O)[C@H](O)[C@H]2O[C@H]2C[C@](C)(N)[C@H](O)[C@H](C)O2)Oc2ccc(cc2Cl)[C@H]1O [Compound 1, vancomycin]
- MIC [8]: 250 µg/mL (≈ 173 µM)
- MIC ([8]; Enterococcus faecium, read-out: MIC, VanA E. faecium TX2465): 250 µg/mL (≈ 173 µM)
- MTD [3]: 300 mg/kg
- bacterial cell membrane permeabilization [11]: no permeabilization
- MIC ([12]; read-out: MIC, +LTA): 250 µg/mL (≈ 173 µM)
- MIC ([12]; read-out: MIC, −LTA): 250 µg/mL (≈ 173 µM)
- MIC [5]: 250 µg/mL (≈ 173 µM)
- MIC [6, 18]: 250 µg/mL (≈ 173 µM)
- MIC [13]: 8 µg/mL (≈ 5.52 µM)
- MIC ([14]; Staphylococcus aureus, ATCC25923, read-out: MIC, Sensitive S. aureus ATCC 25923): 0.5 µg/mL (≈ 0.345 µM)
- decrease of antimicrobial activity by added LTA [15]: no difference
- MIC ([15]; read-out: MIC, +LTA): 250 µg/mL (≈ 173 µM)
- MIC ([15]; read-out: MIC, −LTA): 250 µg/mL (≈ 173 µM)
- MIC [16]: 0.5 µg/mL (≈ 0.345 µM)
- MIC ([9]; Enterococcus faecalis, read-out: MIC, VanA E. faecalis BM 4166): 250 µg/mL (≈ 173 µM)
- MIC ([10]; Enterococcus faecalis, ATCCBAA2573, read-out: MIC, VanA E. faecalis ATCC BAA-2573): 125 µg/mL (≈ 86.3 µM)
- activity in the VRSA thigh infection model [17]: inactive
- terminal half-life (t1/2) [7]: 30 to 78 min
- AUC ([7]; 10 mg/kg): 21800 ng·h/mL
- CL ([7]; 10 mg/kg): 7.67 mL/min/kg
- Cmax ([7]; 10 mg/kg): 62.8 µg/mL
- Vd ([7]; 10 mg/kg): 0.34 L/kg
- t1/2 ([7]; 10 mg/kg): 31.2 min
- tmax ([7]; 10 mg/kg): 4.98 min
- AUC ([7]; 300 mg/kg): 935000 ng·h/mL
- CL ([7]; 300 mg/kg): 5.33 mL/min/kg
- Cmax ([7]; 300 mg/kg): 1665 µg/mL
- Vd ([7]; 300 mg/kg): 0.62 L/kg
- t1/2 ([7]; 300 mg/kg): 81 min
- tmax ([7]; 300 mg/kg): 4.98 min

SMILES: CN[C@H](CC(C)C)C(=O)N[C@H]1C(=O)N[C@@H](CC(N)=O)C(=O)N[C@H]2C(=O)NC3C(=O)N[C@H](C(=O)N[C@H](C(=O)NCc4ccc(NC(=N)N)cc4)c4cc(O)cc(O)c4-c4cc3ccc4O)[C@H](O)c3ccc(c(Cl)c3)Oc3cc2cc(c3OC2OC(CO)C(O)[C@H](O)[C@@H]2O[C@H]2CC(C)(N)[C@H](O)[C@H](C)O2)Oc2ccc(cc2Cl)[C@H]1O (some centres unmarked) [Compound 9, GBn-vancomycin]
- MIC, VanA E. faecium TX2465 [8]: 8 µg/mL (≈ 5.01 µM)
- MIC, +LTA ([12]; E. faecium ATCC BAA-2317, LTA 100 μg/mL): 4 µg/mL (≈ 2.51 µM)
- MIC, −LTA ([12]; E. faecium ATCC BAA-2317, no LTA (0 μg/mL)): 4 µg/mL (≈ 2.51 µM)
- MIC, VanA E. faecium ATCC BAA-2317 [6]: 4 µg/mL (≈ 2.51 µM)
- MIC, VanB E. faecalis ATCC 51299 [13]: 8 µg/mL (≈ 5.01 µM)
- MIC, Sensitive S. aureus ATCC 25923 [14]: 0.25 µg/mL (≈ 0.157 µM)
- MIC, +LTA ([15]; E. faecalis BM 4166, LTA 100 μg/mL): 16 µg/mL (≈ 10 µM)
- MIC, −LTA ([15]; E. faecalis BM 4166, no LTA): 16 µg/mL (≈ 10 µM)
- MIC, MRSA S. aureus ATCC 43300 [16]: 0.12 µg/mL (≈ 0.0752 µM)
- MIC, VanA E. faecalis BM 4166 [9]: 16 µg/mL (≈ 10 µM)
- MIC, VanA E. faecalis ATCC BAA-2573 [10]: 4 µg/mL (≈ 2.51 µM)

SMILES: CN[C@H](CC(C)C)C(=O)N[C@H]1C(=O)N[C@@H](CC(N)=O)C(=O)N[C@H]2C(=O)N[C@H]3C(=O)N[C@H](C(=O)N[C@H](C(=O)NCc4ccc(NC(=N)N)cc4)c4cc(O)cc(O)c4-c4cc3ccc4O)[C@H](O)c3ccc(c(Cl)c3)Oc3cc2cc(c3OC2OC(CO)C(O)[C@H](O)C2O[C@H]2CC(C)(NCc3ccc(-c4ccc(Cl)cc4)cc3)[C@H](O)[C@H](C)O2)Oc2ccc(cc2Cl)[C@H]1O (some centres unmarked) [Compound 19, GBn-CBP-vancomycin]
- bacterial cell membrane permeabilization [11]: strong membrane permeabilization
- MIC ([12]; read-out: MIC, +LTA): 2.5 µg/mL (≈ 1.39 µM)
- MIC ([12]; read-out: MIC, −LTA): 0.3 µg/mL (≈ 0.167 µM)
- MIC [13]: 0.04 µg/mL (≈ 0.0223 µM)
- MIC ([14]; Staphylococcus aureus, ATCC25923; read-out: MIC, Sensitive S. aureus ATCC 25923): 0.04 µg/mL (≈ 0.0223 µM)
- decrease of antimicrobial activity by added LTA [15]: 8 fold
- MIC ([15]; read-out: MIC, +LTA): 5 µg/mL (≈ 2.78 µM)
- MIC ([15]; read-out: MIC, −LTA): 0.6 µg/mL (≈ 0.334 µM)
- MIC [16]: 0.02 µg/mL (≈ 0.0111 µM)
